Results on 1 compound are retold here after patent publication US20230180809A1, “NUTRACEUTIC COMPOSITION COMPRISING LIMONENE AND A DRY EXTRACT OF COCOA FIBRE FOR THE TREATMENT OF OBESITY” (TARGETING GUT DISEASE SRL, priority 2020, published 2023).

The test system of the test is obese mice. Nature of the test: slimming effect of limonene in obese mice. Type of test: in vivo. The conditions noted are these: obese mice after 12 weeks of high lipid diet, feed containing 0.5% of limonene ad libitum for 2 weeks. The procedure:
Animal feed having a concentration of 0.5% in limonene corresponding to a daily dose of 0.6 g/kg of weight in humans. After 12 weeks of high lipid diet that caused obesity, mice were administered ad libitum, animal feed containing 0.5% of limonene for 2 weeks.

SMILES strings stand for the structures.

Turning to `C=C(C)[C@H]1CC=C(C)CC1` [limonene], the “accumulation of lipids in the cells” value is reported as “preventing the accumulation of lipids”; the “reduction of serum triglycerides” value is reported as “up to 47%”; the “size of both white and brown adipocytes” value is reported as “decreasing the size”.
